Read-outs that look alike come from different tables or passages of the source.
What was measured:
[1] = test system: M. marinum in BV2 microglial cells; format: cell-based, Mycobacterium marinum
Mtb H37Rv = test system: Mtb H37Rv; parameters: method as in Sorrentino et al, 2015; settings: ref Sorrentino et al, 2015; cited from earlier work
M. marinum GFP = format: cell-based, Mycobacterium marinum; settings: 10 µM; antibiotic assay
M. marinum luxCDABE = format: cell-based, Mycobacterium marinum; settings: 10 µM
Mtb H37Rv in THP-1 = test system: Mtb H37Rv in THP-1; parameters: method as in Sorrentino et al, 2015; settings: ref Sorrentino et al, 2015, cited from earlier work; for Extracellular MIC90/ Inracellular MIC90: ratio
D. discoideum GFP-ABD = settings: 10 µM
[2] = test system: M. marinum in A. castellanii; format: cell-based, Mycobacterium marinum; settings: 10 µM
[3] = THP1 / Mtb H37Rv infection assay

Row | Compound | IC50 [1] [µM] | BV2 / M. marinum normalised growth, control=1.00, mean ([1]; 10 µM) | Extracellular MIC90 (Mtb H37Rv) [µM] | M. marinum GFP normalised growth, control=1.00, mean (M. marinum GFP) | M. marinum luxCDABE normalised growth, control=1.00, mean (M. marinum luxCDABE) | Intracelullar MIC90 in THP-1 (Mtb H37Rv in THP-1; [3]) [µM] | Extracellular MIC90/ Inracellular MIC90 (Mtb H37Rv in THP-1) | D. discoideum GFP-ABD normalised growth, control=1.00, mean (D. discoideum GFP-ABD) | A. castellanii / M. marinum normalised growth, control=1.00, mean [2] | hit in BV2/M. marinum assay True/False ([1]; 10 µM) | M. marinum luxCDABE normalised growth, control = 1.00, mean (M. marinum luxCDABE) | Intracelullar MIC90 in THP-1 (Mtb H37Rv in THP-1; Mtb H37Rv-infected THP1 cells) [µM] | Hits A. castellanii/M. marinum assay True/False [2] | D. discoideum GFP-ABD normalised growth, control = 1.00, mean (D. discoideum GFP-ABD) | anti-infective properties in microglial cell (BV2) infection assay ([1]; 10 µM) | anti-infective properties in A. castellanii infection assay [2]
1 | Nc1ccccc1Nc1ccc2c(c1)OCO2 [SB-435634] | 11.4 | 0.63 | 1.8 | 1.08 | 1.00 | 5.55 | 0.32 | 1.14 | 1.04 |  |  |  |  |  |  | 
2 | Cc1ccc2nc(C(F)(F)F)c(C(=O)NCc3cccs3)n2c1 [GSK1829729A] | 0.08 | 0.48 | 0.9 | 0.0432 | 0.00 | 0.61 | 1.47 | 0.86 | 0.52 | TRUE | 0,00 | 0.61 | FALSE |  |  | 
3 | CSc1ccccc1C(=O)Nc1nc(-c2ccccn2)cs1 [GSK921190A] | 4.08 | 0.94 | 1.7 | 0.45 | 0.10 | 16.65 | 0.1 | 0.94 | 1.20 |  |  |  |  |  |  | 
4 | CCc1ccc(S(=O)(=O)Nc2cc(CN3CCN(CCC(C)C)CC3)ccc2C)cc1.O=C(O)C(F)(F)F.O=C(O)C(F)(F)F [SB-811137-V] | 5.94 | 0.85 | 4.7 | 0.94 | 0.18 | 5.55 | 0.85 | 0.88 | 1.15 |  |  |  |  |  |  | 
5 | O=C(NNC(=O)c1ccc([N+](=O)[O-])o1)c1ccc2ccccc2c1 [GSK347301A] | 6.58 | 0.97 | 8.3 | 1.03 | 0.19 | 16.65 | 0.5 | 0.49 | 0.90 |  |  |  |  |  |  | 
6 | O=C(NC12CC3CC(CC(C3)C1)C2)c1cc2cc(Cl)ccc2[nH]1 [GW623128X] | 4.92 | 0.66 | 1 | 0.86 | 0.00 | 0.07 | 14.28 | 1.06 | 0.51 |  |  |  |  |  |  | 
7 | CCOc1ccc(-c2nc(CNCCc3ccc(F)cc3)cs2)cc1.O=C(O)C(=O)O [GSK1759150A] | 4.31 | 0.73 | 1.1 | 0.75 | 0.37 | 16.65 | 0.07 | 0.30 | 0.82 |  |  |  |  |  |  | 
8 | Cc1ccc2nc(C(F)(F)F)c(C(=O)NCc3ccc4c(c3)OCO4)n2c1 [GSK1829732A] | 3.52 | 0.34 | 1.1 | 0.06 | 0.00 | 1.85 | 0.59 | 1.00 | 0.56 | TRUE | 0,00 | 1.85 | FALSE | 1,00 |  | 
9 | Br.CC1(C)NC(N)=NC(=N)N1OCCCOc1ccc(Cl)cc1Cl [BRL-51091AM] | 1.8 | 0.51 | 3.5 | 1.23 | 0.00 | 5.55 | 0.63 | 0.97 | 1.95 |  |  |  |  |  |  | 
10 | Nc1cccnc1Nc1ccc(Cl)cc1 [GR135486X] | 10.8 | 0.75 | 0.2 | 0.83 | 1.00 | 5.55 | 0.04 | 0.35 | 0.97 |  |  |  |  |  |  | 
11 | COc1ccc(CCNC(=O)c2c(C)nc3ccccn23)cc1 [GSK762874A] | 3.64 | 0.59 | 3.1 | 0.08 | 0.00 | 5.55 | 0.56 | 1.04 | 0.70 |  |  |  |  |  |  | 
12 | FC(F)(F)c1nnc2ccc(Cl)nn12 [GSK352635A] | 7.58 | 0.89 | 9.1 | 0.81 | 0.60 | 50 | 0.18 | 1.17 | 1.02 |  |  |  |  |  |  | 
13 | Cl.O=C(c1ccco1)N(CCCn1ccnc1)c1nc2c(Cl)cccc2s1 [GSK1788487A] | 4.96 | 0.94 | 8.4 | 0.66 | 0.09 | 50 | 0.17 | 0.32 | 1.34 |  |  |  |  |  |  | 
14 | COc1cc(C(F)(F)F)nc2ccc(C)c(N)c12 [GSK345724A] | 8.6 | 0.87 | 5.3 | 0.29 | 0.31 | 1.85 | 2.86 | 0.95 | 1.16 |  |  |  |  |  |  | 
15 | COc1ccc(CCNc2cc(-c3ccccc3)nc3ncnn23)cc1 [GSK888636A] | 5.42 | 0.72 | 0.6 | 0.44 | 0.00 | 1.85 | 0.32 | 1.15 | 1.02 |  |  |  |  |  |  | 
16 | CNc1nc(SC)nc2ccccc12 [GSK353069A] | 1.31 | 0.42 | 0.2 | 0.0149 | 0.00 | 0.07 | 2.86 | 0.99 | 0.47 | TRUE | 0,00 | 0.07 | TRUE |  | strong anti-infective properties | strong anti-infective properties
17 | O=C(NCc1ccc2c(c1)OCO2)c1c(C(F)(F)F)nc2ccccn12 [GSK1829671A] | 7.47 | 0.49 | 3.3 | 0.06 | 0.00 | 16.65 | 0.2 | 1.21 | 0.66 | TRUE | 0,00 | 16.65 | FALSE | 1,21 |  | 
18 | Cc1nc2ccccn2c1C(=O)NCc1ccccc1 [GSK957094A] | 7.59 | 0.52 | 2 | 0.0746 | 0.11 | 5.55 | 0.36 | 0.93 | 0.54 |  |  |  |  |  |  | 

Reference: PMC5834492, “Antimycobacterial drug discovery using Mycobacteria-infected amoebae identifies anti-infectives and new molecular targets” (Scientific Reports, 2018)
